# According to patent US12629374B2, “Antimalarial agents” (Merck Sharp & Dohme LLC, priority 2020, dated 2026):
# pEC50: −log10 of the molar value.
# Test system: ring stage parasites
# Test: Parasite growth potency assay, 72 hours, LDH readout
# Assay type: cell-based
# Conditions: 72 h, parasite growth measured by LDH assay after 72 hours at 37° C.; 0.7% rings, 2% haematocrit; read-out: EC50
# Method in brief: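 Parasite growth was quantified by LDH assay after a −80 °C freeze-thaw. Before that, compound was incubated for 72 h at 37 °C under humidified gas with ring-stage cultures adjusted to 0.7% parasitemia and 2% haematocrit in serum- and albumax-supplemented RPMI-Hepes.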
row,SMILES,pEC50
1,"C#CCC[C@H](c1cccc(C(=O)N[C@H]2CCOc3ccccc32)c1)N1C(=N)NC(CC)(CC)CC1=O [Example 209, [1-[1-[3-LL(4R)-chroman-4-yl]carbamoyl]phenyl]pent-4-ynyl]-4,4-diethyl-6-oxo-hexahydropyrimidin-2-ylidene]ammonium; 2,2,2-trifluoroacetate]",8.05
2,"C#CCCC[C@H](c1cccc(C(=O)N[C@H]2CCOc3ccccc32)c1)N1C(=N)NC(CC)(CC)CC1=O [Example 210A, [1-[1-[3-[[(4S)-chroman-4-yl]carbamoyl]phenyl]hex-5-ynyl]-4,4-diethyl-6-oxo-hexahydropyrimidin-2-ylidene]ammonium; 2,2,2-trifluoroacetate]",9.15
3,"C#CCC[C@@H](c1cccc(C(=O)NC2CC(C)(C)Oc3ccccc32)c1)N1C(=N)NC(CC)(CC)CC1=O (stereo partly drawn) [Example 214A, 3-[(1S)-1-(4,4-diethyl-2-imino-6-oxo-hexahydropyrimidin-1-yl)pent-4-ynyl]-N-(2,2-dimethylchroman-4-yl)benzamide]",7.58
4,"C#CCC[C@H](c1cccc(C(=O)N[C@H]2CC(C)(C)Oc3ccccc32)c1)N1C(=N)NC(CC)(CC)CC1=O [Example 214C, 3-[(1R)-1-(4,4-diethyl-2-imino-6-oxo-hexahydropyrimidin-1-yl)pent-4-ynyl]-N-(2,2-dimethylchroman-4-yl)benzamide]",9.40
5,"CCC1(CC)CC(=O)N(Cc2cccc(C(=O)N[C@@H]3CCOc4ccc(Cl)cc43)c2)C(=N)N1 [Example 215A, N-(6-chlorochroman-4-yl)-3-[(4,4-diethyl-2-imino-6-oxo-hexahydropyrimidin-1-yl)methyl]benzamide]",7.15
6,"C[C@H](c1cccc(C(=O)NC2c3ccccc3OC(C)(C)C2(C)O)c1)N1C(=N)NC(C)(C)CC1=O (stereo partly drawn) [Example 222, N-(3-hydroxy-2,2,3-trimethyl-chroman-4-yl)-3-[(1R)-1-(2-imino-4,4-dimethyl-6-oxo-hexahydropyrimidin-1-yl)ethyl]benzamide]",8.64
7,"CCC1(CC)CC(=O)N(C(COC)c2cccc(C(=O)N[C@@H]3c4ccccc4C[C@H]3O)c2)C(=N)N1 (stereo partly drawn) [Example 223, 3-[1-(4,4-diethyl-2-imino-6-oxo-hexahydropyrimidin-1-yl)-2-methoxy-ethyl]-N-[(1R,2R)-2-hydroxyindan-1-yl]benzamide]",8.64
8,"CC1(C)CC(=O)N(C(CC(F)(F)F)c2cccc(C(=O)N[C@@H]3c4ccccc4C[C@H]3O)c2)C(=N)N1 (stereo partly drawn) [Example 224, N-[(1R,2R)-2-hydroxyindan-1-yl]-3-[3,3,3-trifluoro-1-(2-imino-4,4-dimethyl-6-oxo-hexahydropyrimidin-1-yl)propyl]benzamide]",7.81
9,"CC[C@]1(C)CC(=O)N([C@H](C)c2cccc(C(=O)NC3c4ccccc4OC(C)(C)C3(C)O)c2)C(=N)N1 (stereo partly drawn) [Example 225, 3-[(1R)-1-[(4R)-4-ethyl-2-imino-4-methyl-6-oxo-hexahydropyrimidin-1-yl]ethyl]-N-(3-hydroxy-2,2,3-trimethyl-chroman-4-yl)benzamide]",9.49
10,"CCC1(CC)CC(=O)N([C@H](CCOC)c2cccc(C(=O)NC3c4ccccc4CCC3O)c2)C(=N)N1 (stereo partly drawn) [Example 226, 3-[(1R)-1-(4,4-diethyl-2-imino-6-oxo-hexahydropyrimidin-1-yl)-3-methoxy-propyl]-N-(2-hydroxytetralin-1-yl)benzamide]",8.66
11,"CCC1(CC)NC(=N)N([C@H](CCOC)c2cccc(C(=O)N[C@@H]3c4ccccc4C[C@H]3O)c2)C(=O)C1C (stereo partly drawn) [Example 227A, 3-[(1R)-1-(4,4-diethyl-2-imino-5-methyl-6-oxo-hexahydropyrimidin-1-yl)-3-methoxy-propyl]-N-[(1R,2R)-2-hydroxyindan-1-yl]benzamide]",8.90
12,"CCC1(CC)CC(=O)N([C@H](C)c2cccc(C(=O)N[C@@H]3c4ccccc4OC(C)(C)[C@@]3(C)O)c2)C(=N)N1 [Example 228, 3-[(1R)-1-(4,4-diethyl-2-imino-6-oxo-hexahydropyrimidin-1-yl)ethyl]-N-[(3S,4R)-3-hydroxy-2,2,3-trimethyl-chroman-4-yl]benzamide]",9.47
13,"CCC1(CC)CC(=O)N(C(COC)c2cccc(C(=O)N[C@@H]3c4ccccc4OC[C@]3(C)O)c2)C(=N)N1 (stereo partly drawn) [Example 229, 3-[1-(4,4-diethyl-2-imino-6-oxo-hexahydropyrimidin-1-yl)-2-methoxy-ethyl]-N-[(3R,4R)-3-hydroxy-3-methyl-chroman-4-yl]benzamide]",8.66
14,"COCC[C@H](c1cccc(C(=O)N[C@@H]2c3ccccc3OC(C)(C)[C@@]2(C)O)c1)N1C(=N)NC(C)(C)CC1=O [Example 231, N-[(3S,4R)-3-hydroxy-2,2,3-trimethyl-chroman-4-yl]-3-[(1R)-1-(2-imino-4,4-dimethyl-6-oxo-hexahydropyrimidin-1-yl)-3-methoxy-propyl]benzamide]",8.54
15,"CCC1(CC)CC(=O)N(C(COC)c2cccc(C(=O)N[C@@H]3c4ccccc4OC(C)(C)[C@H]3O)c2)C(=N)N1 (stereo partly drawn) [Example 232, 3-[l-(4,4-diethyl-2-imino-6-oxo-hexahydropyrimidin-1-yl)-2-methoxy-ethyl]-N-[(3S,4R)-3-hydroxy-2,2-dimethyl-chroman-4-yl]benzamide]",9.49
16,"CC1(C)CC(=O)N(C(CC(F)(F)F)c2cccc(C(=O)N[C@@H]3c4ccccc4OC(C)(C)[C@H]3O)c2)C(=N)N1 (stereo partly drawn) [Example 233, N-[(3S,4R)-3-hydroxy-2,2-dimethyl-chroman-4-yl]-3-[3,3,3-trifluoro-1-(2-imino-4,4-dimethyl-6-oxo-hexahydropyrimidin-1-yl)propyl]benzamide]",8.85
17,"COCC[C@H](c1cccc(C(=O)NC2c3cc(F)ccc3OC(C)(C)C2(C)O)c1)N1C(=N)NC(C)(C)CC1=O (stereo partly drawn) [Example 235, N-(6-fluoro-3-hydroxy-2,2,3-trimethyl-chroman-4-yl)-3-[(1R)-1-(2-imino-4,4-dimethyl-6-oxo-hexahydropyrimidin-1-yl)-3-methoxy-propyl]benzamide]",9.49
18,"CCC1(CC)CC(=O)N(C(CCOC)c2ccc(C(F)(F)F)c(C(=O)N[C@@H]3c4ccccc4C[C@H]3O)c2)C(=N)N1 (stereo partly drawn) [Example 239, 5-[1-(4,4-diethyl-2-imino-6-oxo-hexahydropyrimidin-1-yl)-3-methoxy-propyl]-N-[(1R,2R)-2-hydroxyindan-1-yl]-2-(trifluoromethyl)benzamide]",8.44
19,"CCC1(CC)CC(=O)N(C(CCOC)c2ccc(C(F)(F)F)c(C(=O)N[C@@H]3c4ccccc4C[C@@]3(C)O)c2)C(=N)N1 (stereo partly drawn) [Example 241, 5-[1-(4,4-diethyl-2-imino-6-oxo-hexahydropyrimidin-1-yl)-3-methoxy-propyl]-N-[(1R,2R)-2-hydroxy-2-methyl-indan-1-yl]-2-(trifluoromethyl)benzamide]",8.01
20,"CCC1(CC)CC(=O)N(C(CCOC)c2ccc(C(F)(F)F)c(C(=O)N[C@@H]3c4ccccc4C[C@]3(C)O)c2)C(=N)N1 (stereo partly drawn) [Example 242, 5-[1-(4,4-diethyl-2-imino-6-oxo-hexahydropyrimidin-1-yl)-3-methoxy-propyl]-N-[(1R,2S)-2-hydroxy-2-methyl-indan-1-yl]-2-(trifluoromethyl)benzamide]",8.64
21,"CCC1(CC)CC(=O)N(C(CCOC)c2ccc(C(F)(F)F)c(C(=O)N[C@@H]3c4ccccc4OC[C@H]3O)c2)C(=N)N1 (stereo partly drawn) [Example 243, 5-[1-(4,4-diethyl-2-imino-6-oxo-hexahydropyrimidin-1-yl)-3-methoxy-propyl]-N-[(3S,4R)-3-hydroxychroman-4-yl]-2-(trifluoromethyl)benzamide]",8.19
22,"CCC1(CC)CC(=O)N(C(CCOC)c2ccc(C(F)(F)F)c(C(=O)N[C@@H]3c4ccccc4OC[C@@]3(C)O)c2)C(=N)N1 (stereo partly drawn) [Example 244, 5-[1-(4,4-diethyl-2-imino-6-oxo-hexahydropyrimidin-1-yl)-3-methoxy-propyl]-N-[(3S,4R)-3-hydroxy-3-methyl-chroman-4-yl]-2-(trifluoromethyl)benzamide]",8.21

# Same assay, conditions: parasite growth measured by LDH assay after 72 hours at 37° C.; 0.7% rings, 2% haematocrit; read-out: EC50
row,SMILES,pEC50
1,"C#CCCC(c1cccc(C(=O)NC2CC(C)(C)Oc3ccccc32)c1)N1C(=N)NC(CC)(CC)CC1=O [Example 214B, 3-[(1R)-1-(4,4-diethyl-2-imino-6-oxo-hexahydropyrimidin-1-yl)pent-4-ynyl]-N-(2,2-dimethylchroman-4-yl)benzamide]",7.51
2,"CCC1(CC)NC(=N)N([C@H](CCOC)c2cccc(C(=O)N[C@@H]3c4ccccc4C[C@H]3O)c2)C(=O)C1C (stereo partly drawn) [Example 227B, 3-[(1R)-1-(4,4-diethyl-2-imino-5-methyl-6-oxo-hexahydropyrimidin-1-yl)-3-methoxy-propyl]-N-[(1R,2R)-2-hydroxyindan-1-yl]benzamide]",8.94
3,"CCC1(CC)CC(=O)N(C(COC)c2cccc(C(=O)N[C@@H]3c4ccccc4OC[C@@]3(C)O)c2)C(=N)N1 (stereo partly drawn) [Example 230, 3-[l-(4,4-diethyl-2-imino-6-oxo-hexahydropyrimidin-1-yl)-2-methoxy-ethyl]-N-[(3S,4R)-3-hydroxy-3-methyl-chroman-4-yl]benzamide]",9.08

# Same assay, conditions: parasite growth measured by LDH assay after 72 hours at 37° C.; 0.7% rings, 2% haematocrit; trifluoroacetate; read-out: EC50
row,SMILES,pEC50
1,"C#CCCCC(c1cccc(C(=O)N[C@@H]2CCOc3ccccc32)c1)N1C(=N)NC(CC)(CC)CC1=O (stereo partly drawn) [Example 210B, [1-[1-[3-[[(4R)-chroman-4-yl]carbamoyl]phenyl]hex-5-ynyl]-4,4-diethyl-6-oxo-hexahydropyrimidin-2-ylidene]ammonium; 2,2,2-trifluoroacetate]",8.64
2,"C#CCCCC(c1cccc(C(=O)NC2CCOc3ccccc32)c1)N1C(=N)NC(CC)(CC)CC1=O [Example 210C, [1-[1-[3-[[(4S)-chroman-4-yl]carbamoyl]phenyl]hex-5-ynyl]-4,4-diethyl-6-oxo-hexahydropyrimidin-2-ylidene]ammonium; 2,2,2-trifluoroacetate]",8.16
